Earlier results as cited in paper PMC12238501 (Scientific Reports, 2025).

Solubility in water: low solubility in water
SMILES: Oc1ccc(C=Cc2cc(O)cc(O)c2)cc1 [Resveratrol, 3,4’,5-trihydroxystilbene]
